Results: patent publication EP1383793B1 (priority 2000, dated 2001)
pKd: −log10 of the molar value. Residues, ends and D or L forms follow the SMILES beside them. *: point of attachment. Biotin = O=C1N[C@H]2[C@H](CS[C@H]2CCCCC(=O)*)N1

Assays:
[1] = molecular target: human IGF-1 receptor (HIGF-1R) (Homo sapiens, UniProt P08069); test: 125I-IGF-1 competition binding assay on solubilised purified receptor; details: for Ratio: Kd HIGF1R / Kd HIR
[2] = molecular target: T1, human insulin receptor (HIR) (Homo sapiens, UniProt P06213); test: 125I-insulin competition binding assay on solubilised purified receptor; details: read-out: Kd (µM) HIR
T1 construct: made in house

Insulin receptor = molecular target: T2, Insulin receptor (Homo sapiens, UniProt P06213); test: BIAcore competition: IR pre-incubated with test substance, injected over immobilised insulin; type: binding; details: peptide about 40 µM, IR 450 nM
T2 construct: composed of the extracellular domains of both the α and β chains of the natural receptor; made in house; background b13 names human embryonic kidney 293 cells for the Bass et al. construct
Description: Flowcell-1 was used for background binding to correct for any non-specific binding. […] The surface was regenerated with 25 mM NaOH. […] Thus, the system was validated for competition studies. […] The amino acid sequences referred to in the tables are identified in Figures 47 and 48, except the 447 and 2A9 sequences, which are shown below. TABLE 9: BIAcore Results-Fusion Proteins Compete for Binding to IR

adipocytes = test: 3H-glucose uptake into adipocytes (fat cell assay, FFC); type: cell-based, Mouse; set-up: key to Resp.: -2 (antagonist); +2 (agonist); details: for ED50: Estimated, not calculated values; for Resp.: Subjective ranking, basal and sub maximal insulin, includes series A
IGF-1R [3] = molecular target: T3, IGF-1R (Homo sapiens, UniProt P08069); test: Phage ELISA, binding of phage-displayed peptides to IGF-1R; details: 405 nm
T3 construct: Soluble IGF-1R was obtained from R&D Systems; purchased R&D Systems 391-GR/CF
Description: Figures 1A-10G. Amino acid sequences comprising the motif of Formulas 1 through 10. […] One hundred microliters of this solution was added to an appropriate number of wells in a 96-well microtiter plate (MaxiSorp plates, Nunc) and incubated overnight at 4°C. […] Subsequent steps are the same for pooled and clonal phage. […] Phage resuspended in MPBS were added to duplicate wells (100 µl/well) and incubated at RT for 1 h. […] Incubation was for 1 h at RT, followed by PBS washes as described. […] Phage ELISA. […] The wells were blocked with 200 µl of MPBS for 1.5 h at RT. Phage were added at 100 µl per well. Peptides were added as noted below and allowed to incubate at RT for 3 h. The plates were washed 3 times with PBST. A solution of 1:3000 diluted HRP:Anti-M13 conjugate at 100 µl per well of was added for 1 h. Following a repeat of the washing, 100 µl of ABTS was added for 15-30 min. […] Phage ELISA. […] Phage were added at 100 µl per well. Peptides were added as noted below and allowed to incubate at RT for 3 h. The plates were washed 3X with PBST. A solution of 1:3000 diluted HRP:Anti-M13 Conjugate at 100 µl per well of was added for 1 h. Following a repeat of the washing, 100 µl of ABTS was added for 15-30 min. The OD405 was measured using a SpectraMax 340 Microplate Spectrophotometer.

IR [4] = molecular target: T4, IR (Homo sapiens, UniProt P06213); test: Phage ELISA, binding of phage-displayed peptides to IR; details: for Absorbance Values IR: 405 nm
T4 construct: composed of the extracellular domains of both the α and β chains of the natural receptor; made in house; background b13 names human embryonic kidney 293 cells for the Bass et al. construct
Description: Amino acid sequences comprising the motif of Formulas 1 through 10. […] Fifty microliters of this solution was added to an appropriate number of wells in a 96-well microtiter plate (MaxiSorp plates, Nunc) and incubated overnight at 4°C. […] To isolate specific binders, each library was panned against a soluble form of the human IR. This IR is composed of the extracellular domains of both the α and β chains of the natural receptor, as well as the constant domain from immunoglobulin Fc, retaining the β-α-α-β structure described above. Because the IR is expressed in a eukaryotic system, disulfide bond formation and glycosylation patterns should mimic the wild-type receptor. The details of this recombinant protein construct are described in Bass et al. (1996). Phage ELISA. […] The wells were blocked with 200 µl of MPBS for 1.5 h at RT. […] Peptides were added as noted below and allowed to incubate at RT for 3 h. The plates were washed 3 times with PBST. A solution of 1:3000 diluted HRP:Anti-M13 conjugate at 100 µl per well of was added for 1 h. Following a repeat of the washing, 100 µl of ABTS was added for 15-30 min. […] Phage ELISA. […] Peptides were added as noted below and allowed to incubate at RT for 3 h. […] A solution of 1:3000 diluted HRP:Anti-M13 Conjugate at 100 µl per well of was added for 1 h. Following a repeat of the washing, 100 µl of ABTS was added for 15-30 min. The OD405 was measured using a SpectraMax 340 Microplate Spectrophotometer.

[5] = Precipitate in diluted peptide stock prior to adding to the fat cell assay; solubility under assay conditions; type: physicochemical; details: diluted stock prior to adding to assay
IR [6] = molecular target: T4, IR; test: Phage ELISA, competition of phage binding by soluble synthetic peptides, IR-coated wells; details: Insulin Receptor
Description: (§1) Peptide Competition. […] Twenty microliters of the stock synthetic-peptide solution was added to Row A. A series of 20 µl into 100 µl dilutions were performed until Row G. Twenty microliters were discarded from Row G to maintain 100 µl per well. Row H was reserved as no peptide wells. […] The volume was maintained by the addition of 18 µl of the phage solution to Row A.
(§2) Phage ELISA. […] The wells were blocked with 200 µl of 2% (w/v) Carnation non-fat dry milk in PBS for 1.5 h at RT. Phage were added at 100 µl per well. Peptides were added as noted below and allowed to incubate at RT for 3 h. The plates were washed 3X with PBST. A solution of 1:3000 diluted HRP:Anti-M13 Conjugate at 100 µl per well of was added for 1 h. Following a repeat of the washing, 100 µl of ABTS was added for 15-30 min. The OD405 was measured using a SpectraMax 340 Microplate Spectrophotometer.
(§3) Peptide Competition. Peptide Competition Curves were produced during the phage ELISA across rows in triplicate. The stock synthetic peptide solution was added to Column 12 so that the total volume totaled 150 µl (additional phage solution was added when necessary). A serial dilution was made by transferring 50 µl from Column 12 into 100 µl in Column 11, 50 µl from Column 11 into 100 µl in Column 10, and continuing the serial dilution until Column 2. Fifty microliters were discarded from Column 2 to maintain 100 µl per well. Column 1 was reserved as no peptide wells.
(§4) A p53-like peptide that binds to MDM2 was used as a negative control.

IGF-1R [7] = molecular target: T3, IGF-1R; test: Phage ELISA, competition of phage binding by soluble synthetic peptides, IGF-1R-coated wells; details: IGF Receptor, H2 Phage
Description: as §1, §2, §3, §4

| Absorbance Values sIGF-1R (IGF-1R [3]) | Absorbance Values IR (IR [4]) | Ratio [1] | Comments (precipitation) [5] | Compound | Comments (dose response, effect at basal insulin) (adipocytes) | ED50 (adipocytes) | Resp. (adipocytes) | also measured |
| --- | --- | --- | --- | --- | --- | --- | --- | --- |
| – | – | – | Precipitates | CC(C)C[C@H](NC(=O)[C@@H](NC(=O)[C@@H](N)CCCCN)C(C)C)C(=O)N[C@@H](CCC(N)=O)C(=O)N[C@@H](C)C(=O)N[C@@H](CCCNC(=N)N)C(=O)N[C@@H](Cc1c[nH]cn1)C(=O)NCC(=O)N[C@@H](CS)C(=O)N[C@@H](CC(=O)O)C(=O)N[C@@H](CO)C(=O)N[C@H](C(=O)N[C@@H](CO)C(=O)N[C@@H](CC(=O)O)C(=O)N[C@@H](CS)C(=O)N[C@@H](Cc1ccccc1)C(=O)N[C@@H](Cc1ccc(O)cc1)C(=O)N[C@@H](CCC(=O)O)C(=O)N[C@@H](Cc1c[nH]c2ccccc12)C(=O)N[C@@H](Cc1ccccc1)C(=O)N[C@@H](C)C(=O)N[C@@H](CCCCN)C(=O)N[C@@H](CCCCNC(=O)CCCC[C@@H]1SC[C@@H]2NC(=O)N[C@@H]21)C(N)=O)C(C)C [Clone D102] (H-KVLQARHGCDSVSDCFYEWFAKK(Biotin)-NH2; N-terminus assumed) | – | – | 0 | – |
| – | – | 7.2 | Insoluble, especially after freeze-thaw | CC(C)[C@H](NC(=O)[C@H](C)NC(=O)[C@H](CO)NC(=O)[C@@H](NC(=O)[C@H](Cc1ccccc1)NC(=O)[C@@H](NC(=O)[C@@H](NC(=O)[C@H](CC(=O)O)NC(=O)[C@H](CCCCN)NC(=O)[C@H](Cc1ccc(O)cc1)NC(=O)[C@@H](N)CC(=O)O)C(C)C)[C@@H](C)O)[C@@H](C)O)C(=O)N[C@@H](Cc1ccccc1)C(=O)N[C@@H](Cc1c[nH]cn1)C(=O)N[C@@H](CCC(=O)O)C(=O)N[C@@H](CC(N)=O)C(=O)N[C@@H](Cc1ccccc1)C(=O)N[C@@H](Cc1ccc(O)cc1)C(=O)N[C@@H](CC(=O)O)C(=O)N[C@@H](Cc1c[nH]c2ccccc12)C(=O)N[C@@H](Cc1ccccc1)C(=O)N[C@H](C(=O)N[C@@H](CCCNC(=N)N)C(=O)N[C@@H](CCC(N)=O)C(=O)N[C@H](C(=O)N[C@@H](CO)C(=O)N[C@@H](CCCCN)C(=O)N[C@@H](CCCCNC(=O)CCCC[C@@H]1SC[C@@H]2NC(=O)N[C@@H]21)C(N)=O)C(C)C)C(C)C [Clone H2] | Some response at basal insulin | Approx 20 µM | +2 | ED50 in the effect assay (FFC) (adipocytes; best peptides, agonists): 20 to 30 µM; n (Hill plot) (IR [6]; 20D3 Phage): 1.07; n (Hill plot) (IR [6]; H2 Phage): 0.71; binding to IR when expressed as phage (IR [4]): detectable binding; n (Hill plot) (IGF-1R [7]): 1.21; Result (RUs) (Insulin receptor; IR alone 128 RU): 34.6 RUs |
| 2.08 | 1.43 | – | – | KSMFVAGSDRWPGYGVLADWLKK [Clone F2] | – | – | – | – |

Continued, compound first:

| Compound | Absorbance Values sIGF-1R (IGF-1R [3]) | Absorbance Values IR (IR [4]) | Ratio [1] | Comments (precipitation) [5] | Comments (dose response, effect at basal insulin) (adipocytes) | ED50 (adipocytes) | Resp. (adipocytes) | also measured |
| --- | --- | --- | --- | --- | --- | --- | --- | --- |
| CC(C)C[C@H](NC(=O)CNC(=O)[C@H](CC(N)=O)NC(=O)[C@H](Cc1ccc(O)cc1)NC(=O)[C@H](Cc1ccccc1)NC(=O)[C@H](C)NC(=O)[C@H](CCCNC(=N)N)NC(=O)[C@H](CC(=O)O)NC(=O)[C@@H](N)CCCCN)C(=O)N[C@@H](CCCNC(=N)N)C(=O)N[C@@H](CC(=O)O)C(=O)N[C@@H](CC(C)C)C(=O)N[C@H](C(=O)NCC(=O)N[C@@H](C)C(=O)N[C@H](C(=O)N[C@@H](Cc1ccc(O)cc1)C(=O)NCC(=O)N[C@@H](C)C(=O)N[C@@H](Cc1c[nH]c2ccccc12)C(=O)N[C@@H](CC(=O)O)C(=O)N[C@@H](CCCCN)C(=O)N[C@@H](CCCCNC(=O)CCCC[C@@H]1SC[C@@H]2NC(=O)N[C@@H]21)C(N)=O)C(C)C)C(C)C [Clone 20C11] (H-KDRAFYNGLRDLVGAVYGAWDKK(Biotin)-NH2) | – | – | – | – | – | – | – | pKd [1]: 4.89; Kd [2]: 4.5 µM; % Binding (Insulin receptor): 38% |
| CC[C@H](C)[C@H](NC(=O)[C@H](C)NC(=O)[C@H](CC(=O)O)NC(=O)[C@H](Cc1ccc(O)cc1)NC(=O)[C@H](Cc1ccccc1)NC(=O)[C@H](CC(=O)O)NC(=O)[C@H](CCCCN)NC(=O)[C@H](Cc1ccc(O)cc1)NC(=O)[C@@H](N)CC(=O)O)C(=O)N[C@@H](CC(=O)O)C(=O)N[C@@H](CCC(N)=O)C(=O)N[C@@H](CC(C)C)C(=O)N[C@H](C(=O)N[C@@H](CCCNC(=N)N)C(=O)NCC(=O)N[C@@H](CO)C(=O)N[C@@H](C)C(=O)N[C@@H](CCCNC(=N)N)C(=O)N[C@@H](C)C(=O)NCC(=O)NCC(=O)N[C@H](C(=O)N[C@@H](CCCNC(=N)N)C(=O)N[C@@H](CC(=O)O)C(=O)N[C@@H](CCCCN)C(=O)N[C@@H](CCCCNC(=O)CCCC[C@@H]1SC[C@@H]2NC(=O)N[C@@H]21)C(N)=O)[C@@H](C)O)C(C)C [Clone 20E2] (H-DYKDFYDAIDQLVRGSARAGGTRDKK(Biotin)-NH2; N-terminus assumed) | 2.15 | 1.01 | – | – | Biphasic dose response curve (needs repeating) | Approx 20 µM | +2 | – |
| CSCC[C@H](NC(=O)[C@@H](NC(=O)[C@H](CO)NC(=O)[C@H](CC(C)C)NC(=O)[C@H](CC(C)C)NC(=O)[C@H](C)NC(=O)[C@H](CO)NC(=O)[C@H](Cc1c[nH]c2ccccc12)NC(=O)[C@@H](N)CCCCN)C(C)C)C(=O)N[C@@H](CC(=O)O)C(=O)N[C@H](C(=O)NCC(=O)N[C@@H](Cc1ccccc1)C(=O)N[C@@H](Cc1ccc(O)cc1)C(=O)N[C@@H](C)C(=O)N[C@@H](Cc1c[nH]c2ccccc12)C(=O)N[C@@H](Cc1ccccc1)C(=O)N[C@@H](CC(=O)O)C(=O)N[C@@H](CC(=O)O)C(=O)N[C@@H](C)C(=O)N[C@H](C(=O)N[C@@H](CCCCN)C(=O)N[C@@H](CCCCNC(=O)CCCC[C@@H]1SC[C@@H]2NC(=O)N[C@@H]21)C(N)=O)C(C)C)[C@@H](C)O [Clone B8] (H-KWSALLSVMDTGFYAWFDDAVKK(Biotin)-NH2; N-terminus assumed) | 2.55 | 1.30 | 20 | – | – | – | 0 | – |
